# Source: patent publication US7714105B2, “Use of fragments of oxytocin for the preparation of a pharmaceutical composition in order to create eustasis” (priority 2001, dated 2010)
# Ends that are not written are not given here.
# Columns and labels:
# Type in all cases: in vivo, rat
# [1] = tested on: male Sprague-Dawley rats; assay: Locomotor activity observations in open-field arena; conditions: 1 mg/kg subcutaneously for five consecutive days, studied three days after end of treatment, vs saline control
# Experimental: (§1) Animals. Eight week-old male Sprague-Dawley rats (280-300 g) were obtained from B&K Universal AB, Sollentuna, Sweden.
# (§2) Experimental procedure. SEQ ID NO: 5 was dissolved in physiological saline (1 mg/ml) and administered subcutaneously to six rats at a dose of 1 mg/kg for five consecutive days. Six rats received physiological saline only as a control. Two days after the last treatment, the rats were exposed to blood pressure determination with the cuff technique. The locomotor behaviour was studied three days after the end of the treatment. The next day the animals were decapitated and blood was collected.
# (§3) Statistics. The results are presented as means ±SD. Statistical analysis was performed by means of 2-way ANOVA followed by Bonferroni's test for post hoc comparison. A Students t-test was performed. p-values of 0.05 or less were regarded as statistically significant.
# Two identical frames of photocells were placed at two levels, 40 and 125 mm above the floor, respectively. The open-field was enclosed in a ventilated, sound-attenuating box with a Perspex top. Measurements were made in the dark and performed between 0.900-16.00 h.
# The number of photocell beam interruptions were collected on an IBM-compatible PC computer allowing the registration of locomotor activity (all interruptions of photobeams at the lower level) and rearing (all interruptions of photobeams at the upper level). The data were subject to a square root transformation. For further details on the apparatus and the computer software used, including a schematic drawing of the equipment, see Ericson, E., Samuelsson, J., and Ahlenius, S. (1991). Photocell measurements of rat motor activity: A contribution to sensitivity and variation in behavioral observations. J Pharmacol Meth 25, 111-122. Furthermore, the peripheral activity was measured. By peripheral activity is meant that the animals are located in the corners of the arena. When the animals are frightened, they have a higher tendency to be located in the corners ie have a high peripheral activity. […]
# [2] = tested on: male Sprague-Dawley rats; assay: Measurement of blood pressure with tail cuff on conscious animals; conditions: 1 mg/kg s.c. for five consecutive days, two days after last treatment
# Experimental: as §1, §2, §3
# Blood pressure and heart rate were measured on conscious animals by placing a cuff (Kent RTBP-002, Somedic Sales, Farsta, Sweden) on the base of the tail. The cuff was connected to a Grass 7P8 sphygmanometer and a Grass 7P8DC amplifier with a printer. The rats were habituated to the entire test procedure for 2-3 weeks before the procedure started.
# [3] = tested on: CCK; assay: Plasma cholecystokinin (CCK) determination by immunoassay; conditions: 1 mg/kg s.c. for five consecutive days, trunk blood four days after end of treatment, mean ± SD, in pmol/L
# Experimental: as §1, §2, §3
# (§4) Trunk blood was collected in ice-chilled tubes, containing heparin (10 IU/ml) (Pharmacia-Upjohn, Stockholm, Sweden) and aprotinin (500 IU/ml) (Trasylol, Bayer, Germany). The blood samples were centrifuged and plasma was removed and frozen (−20° C.).
# CCK was immunoassayed as described by Smedh and Uvnäs Moberg, supra. Plasma samples were purified with reversed-phase chromatography using C18 Waters SEP PAK cartridges. […]
# [4] = tested on: Oxytocin; assay: Plasma oxytocin determination by radioimmunoassay; conditions: 1 mg/kg s.c. for five consecutive days, trunk blood four days after end of treatment, mean ± SD, in pmol/L
# Experimental: as §1, §2, §3
# Trunk blood was collected in ice-chilled tubes, containing heparin (10 IU/ml) (Pharmacia-Upjohn, Stockholm, Sweden) and aprotinin (500 IU/ml) (Trasylol, Bayer, Germany). […]
# Oxytocin was measured with a specific radioimmunoassay developed in this laboratory (Stock, S., and Uvnäs-Moberg, K. (1988). Increased plasma levels of oxytocin in response to stimulation of the sciatic and vagal nerves and in response to touch and pinch in anaesthetized rats. Acta Physiol Scand 132, 29-34.). […]
# [5] = tested on: Gastrin; assay: Plasma gastrin determination by immunoassay; conditions: 1 mg/kg s.c. for five consecutive days, trunk blood four days after end of treatment, mean ± SD, in pmol/L
# Experimental: as §1, §2, §3, §4
# Gastrin was immunoassayed as described by Smedh, U., and Uvnäs-Moberg, K. (1994) Intracerebroventricularly administered corticotropin-releasing factor releases somatostatin through a colinergic, vagal pathway in freely fed rats. Acta Physiol Scand 151, 241-247. […]
substance,measurement,setting,value
Cys-Pro-Leu-Gly-NH2 (CPLG-NH2) [SEQ ID NO: 5],amount of peripheral activity,[1],decreased
same,amount of rearing,[1],significantly decreased
same,locomotor activity,[1],significantly decreased
same,"Diastolic blood pressure, value in hormone treated rats (N = 6)",[2]; mean ± SD,87.3 ± 18.9
same,"Systolic blood pressure, value in hormone treated rats (N = 6)",[2]; mean ± SD,116 ± 9.1
same,blood pressure,[2]; vs saline control,significantly decreased
same,Hormone levels in hormone treated rats (N = 6): CCK,[3],8.4 ± 3.5
same,Hormone levels in hormone treated rats (N = 6): Oxytocin,[4],29.7 ± 7.2
same,Hormone levels in hormone treated rats (N = 6): Gastrin,[5],85 ± 19.3
